Measurements reported in patent US9034865B2, “Pyrido [4,3-B] indole and pyrido [3,4-B] indole derivatives and methods of use” (Medivation Technologies, Inc., priority 2010, dated 2015).

How the values were obtained:
[1] = target: T1, human recombinant adrenergic α2C receptor (Homo sapiens, UniProt P18825); test: Adrenergic α2C radioligand binding ([3H]MK-912); conditions: compound at 0.1 μM; read-out: Percentage inhibition of ligand binding, Adrenergic (0.1 μM) α2C
T1 construct: expressed in transfected cells; host or cells: insect Sf9 cells
T1 sequence (P18825 1-462): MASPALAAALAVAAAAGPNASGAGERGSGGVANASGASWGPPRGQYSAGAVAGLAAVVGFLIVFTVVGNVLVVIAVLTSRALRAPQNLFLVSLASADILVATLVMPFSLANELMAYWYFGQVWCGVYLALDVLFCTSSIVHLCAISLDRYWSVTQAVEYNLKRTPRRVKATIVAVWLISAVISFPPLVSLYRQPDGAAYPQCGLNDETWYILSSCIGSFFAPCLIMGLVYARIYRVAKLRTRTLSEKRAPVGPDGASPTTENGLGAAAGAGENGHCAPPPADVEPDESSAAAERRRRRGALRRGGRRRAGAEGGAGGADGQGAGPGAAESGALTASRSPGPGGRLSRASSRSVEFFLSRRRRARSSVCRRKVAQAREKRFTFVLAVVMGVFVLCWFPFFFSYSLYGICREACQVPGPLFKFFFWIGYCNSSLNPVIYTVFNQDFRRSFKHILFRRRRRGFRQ
Method: To evaluate in radioligand binding assays the activity of compounds of the invention, human recombinant adrenergic α2C receptor expressed in insect Sf9 cells (Uhlen, S. et al, J. Pharmacol. Exp. Ther. 271:1558, 1994) in a modified Tris-HCl buffer (50 mM Tris-HCl, pH 7.4, 12.5 mM MgCl2, 2 mM EDTA) was used. Compounds of the invention were incubated with 1 nM [^3H]MK-912 for 60 min at 25° C. Non-specific binding was estimated in the presence of 10 μM WB-4101. Receptor proteins were filtered and washed, the filters were then counted to determine [^3H]MK-912 specifically bound. Compounds were screened at 1 μM or lower, using 1% DMSO as vehicle. Biochemical assay results are presented as the percent inhibition of specific binding in Table 3.

[2] = target: T2, human recombinant serotonin (5-Hydroxytryptamine) 5-HT7 receptor (Homo sapiens, UniProt P34969); test: Serotonin 5-HT7 radioligand binding ([3H]LSD); conditions: compound at 0.1 μM; read-out: Percentage inhibition of ligand binding, Serotonin (0.1 μM) 5-HT7
T2 construct: expressed in transfected cells; host or cells: CHO
Method: To evaluate in radioligand binding assays the activity of compounds of the invention, human recombinant serotonin (5-Hydroxytryptamine) 5-HT7 receptor expressed in Chinese hamster ovary (CHO) cells (Roth, B. et al, J. Pharmacol. Exp. Ther. 268:1403, 1994; Shen, Y. et al, J. Biol. Chem. 268:18200, 1993) in a modified Tris-HCl buffer (50 mM Tris-HCl, pH 7.4, 10 mM MgCl2, 0.5 mM EDTA) was used. Compounds of invention were incubated with 5.5 nM [^3H] Lysergic acid diethylamide (LSD) for 2 h at 25° C. Non-specific binding was estimated in the presence of 10 μM Serotonin (5-HT). Receptor proteins were filtered and washed, the filters were then counted to determine [^3H]LSD specifically bound. Compounds were screened at 1 μM or lower, using 1% DMSO as vehicle. Biochemical assay results are presented as the percent inhibition of specific binding in Table 4.

[3] = target: T3, rat adrenergic α1A receptor (Rattus norvegicus, UniProt P43140); test: Adrenergic α1A radioligand binding ([3H]Prazosin); conditions: compound at 0.1 μM; read-out: Percentage inhibition of ligand binding, Adrenergic (0.1 μM) α1A
T3 construct: rat adrenergic α1A receptor obtained from Wistar Rat submaxillary glands; from tissue; host or cells: Wistar rat submaxillary glands
T3 sequence (P43140 1-466): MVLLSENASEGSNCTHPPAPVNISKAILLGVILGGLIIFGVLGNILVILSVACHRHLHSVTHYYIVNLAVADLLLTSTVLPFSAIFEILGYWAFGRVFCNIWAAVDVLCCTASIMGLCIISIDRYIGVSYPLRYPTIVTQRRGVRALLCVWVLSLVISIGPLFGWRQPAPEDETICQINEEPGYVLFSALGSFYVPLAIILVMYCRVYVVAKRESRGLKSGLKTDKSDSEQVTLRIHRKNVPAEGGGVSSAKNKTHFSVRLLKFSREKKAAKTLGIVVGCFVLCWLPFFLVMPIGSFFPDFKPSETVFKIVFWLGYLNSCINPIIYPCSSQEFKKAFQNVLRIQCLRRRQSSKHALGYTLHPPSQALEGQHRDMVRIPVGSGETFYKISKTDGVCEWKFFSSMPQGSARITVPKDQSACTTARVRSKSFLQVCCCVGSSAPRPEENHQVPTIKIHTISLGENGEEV
Method: To evaluate in radioligand binding assays the activity of compounds of the invention, rat adrenergic α1A receptor obtained from Wistar Rat submaxillary glands (Michel, A. et al, Br. J. Pharmacol. 98:883, 1989) in a modified Tris-HCl buffer (50 mM Tris-HCl buffer, pH 7.4, 0.5 mM EDTA) was used. Compounds of the invention were incubated with 0.25 nM [^3H]Prazosin for 60 min at 25° C. Non-specific binding was estimated in the presence of 10 μM phentolamine. Receptor proteins were filtered and washed, the filters were then counted to determine [^3H]Prazosin specifically bound. Compounds of the invention were screened at 1 μM or lower, using 1% DMSO as vehicle. Biochemical assay results are presented as the percent inhibition of specific binding in Table 3.

[4] = target: T4, human recombinant dopamine D2L receptor (Homo sapiens, UniProt P14416); test: Dopamine D2L radioligand binding ([3H]Spiperone); conditions: compound at 1 μM; read-out: Percentage inhibition of ligand binding, Dopamine (1 μM) D2L
T4 construct: expressed in transfected cells; host or cells: CHO
Method: To evaluate in radioligand binding assays the activity of compounds of the invention, human recombinant dopamine D2L receptor expressed in Chinese hamster ovary (CHO) cells (Grandy, D. et al, Proc. Natl. Acad. Sci. USA. 86:9762, 1989; Hayes, G. et al, Mol. Endocrinol. 6:920, 1992) in a modified Tris-HCl buffer (50 mM Tris-HCl, pH 7.4, 1.4 mM Ascorbic Acid, 0.001% BSA, 150 mM NaCl) was used. Compounds of the invention were incubated with 0.16 nM [^3H]Spiperonefor 120 min at 25° C. Non-specific binding was estimated in the presence of 10 μM Haloperidol. Receptor proteins were filtered and washed, the filters were then counted to determine [^3H]Spiperone specifically bound. Compounds were screened at 1 μM or lower, using 1% DMSO as vehicle. Biochemical assay results are presented as the percent inhibition of specific binding in Table 3.

T2 sequence (P34969 whole entry): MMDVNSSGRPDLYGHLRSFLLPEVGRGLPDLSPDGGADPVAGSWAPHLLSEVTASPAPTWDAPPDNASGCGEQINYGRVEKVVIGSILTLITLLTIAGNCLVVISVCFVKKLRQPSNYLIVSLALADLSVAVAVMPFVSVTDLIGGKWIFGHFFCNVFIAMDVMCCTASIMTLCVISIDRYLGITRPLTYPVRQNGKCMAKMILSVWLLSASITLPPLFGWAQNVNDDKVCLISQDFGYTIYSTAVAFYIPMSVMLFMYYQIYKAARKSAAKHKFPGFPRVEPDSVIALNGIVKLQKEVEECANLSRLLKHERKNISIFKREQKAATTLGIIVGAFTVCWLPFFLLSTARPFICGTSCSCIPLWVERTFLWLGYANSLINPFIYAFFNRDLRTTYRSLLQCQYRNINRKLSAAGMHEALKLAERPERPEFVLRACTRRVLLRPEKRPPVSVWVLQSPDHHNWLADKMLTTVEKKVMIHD
T4 sequence (P14416 whole entry): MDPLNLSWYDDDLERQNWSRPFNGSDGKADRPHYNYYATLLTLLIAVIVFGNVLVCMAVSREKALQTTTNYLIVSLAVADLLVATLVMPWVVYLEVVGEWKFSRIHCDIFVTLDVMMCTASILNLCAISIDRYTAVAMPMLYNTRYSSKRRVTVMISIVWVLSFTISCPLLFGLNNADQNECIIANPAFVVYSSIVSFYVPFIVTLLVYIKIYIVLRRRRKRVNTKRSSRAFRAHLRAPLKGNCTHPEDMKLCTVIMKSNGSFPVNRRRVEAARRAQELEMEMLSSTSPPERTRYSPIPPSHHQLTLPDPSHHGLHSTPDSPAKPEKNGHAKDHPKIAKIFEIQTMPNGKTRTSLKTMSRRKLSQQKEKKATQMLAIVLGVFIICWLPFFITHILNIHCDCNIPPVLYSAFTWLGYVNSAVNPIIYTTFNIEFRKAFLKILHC

| SMILES | inhibition at 0.1 µM [1] | inhibition at 0.1 µM [2] | inhibition at 0.1 µM [3] | inhibition at 1 µM [4] |
| --- | --- | --- | --- | --- |
| Cc1cc(C#Cc2ccc(C)nc2)c2c(c1)c1c(n2C)CCN(C)C1 [Compound 12, 2,3,4,5-tetrahydro-2,5,8-trimethyl-6-(2-(6-methylpyridin-3-yl)ethynyl)-1H-pyrido[4,3-b]indole] | 3% | 5% | -12% | 14% |
| Cc1cc(-c2ccc(F)cc2)c2c(c1)c1c(n2C)CCN(C)C1 [Compound 7] | 8% | 12% | 1% | 5% |
| Cc1cc(C#Cc2cccs2)c2[nH]c3c(c2c1)CN(C)CC3 [Compound 8] | 7% | 6% | -5% | -1% |
| Cc1cc(/C=C/c2ccc(C)nc2)c2c(c1)c1c(n2C)CCN(C)C1 [Compound 14] | 1% | 13% | -16% | 14% |
| C#Cc1cc(C)cc2c3c(n(C)c12)CCN(C)C3 [Compound 10, 6-Ethynyl-2,3,4,5-tetrahydro-2,5,8-trimethyl-1H-pyrido[4,3-b]indole] | 36% | 14% | 6% | 70% |
| Cc1cc(-c2ccncc2)c2c(c1)c1c(n2C)CCN(C)C1 [Compound 9] | 1% | 26% | 4% | 7% |
| Cc1cc(CCc2ccc(C)nc2)c2c(c1)c1c(n2C)CCN(C)C1 [Compound 13] | 2% | 16% | 2% | 15% |
| Cc1cc(C#Cc2ccncc2)c2c(c1)c1c(n2C)CCN(C)C1 [Compound 17] | 3% | 23% | -2% | 1% |
| Cc1cc(C#Cc2nccs2)c2[nH]c3c(c2c1)CN(C)CC3 [Compound 16] | 5% | 35% | -1% | -1% |
| C/C(=C\c1cc(C)cc2c3c(n(C)c12)CCN(C)C3)c1ccncc1 [Compound 11] | 12% | -17% | -14% | 28% |
| C/C(=C\c1cc(C)cc2c3c(n(C)c12)CCN(C)C3)c1ccc(C)nc1 [Compound 15] | -14% | 36% | 3% | 3% |
| Cc1ccc(C#Cc2cc(Cl)cc3c4c(n(C)c23)CCN(C)C4)cn1 [Compound 18] | 0% | 8% | 14% | 7% |
